Assay results published in patent publication US20240043470A1, “MACROCYCLIC COMPOUNDS AS PROTEASOME INHIBITORS” (CORNELL UNIVERSITY, priority 2017, published 2024).
One block for each compound: values may come before it.

What was measured:
[1] = target: β5c of hu c-20S (Homo sapiens (Human), UniProt P20618+P28074); experiment: IC50 determination against β5c of human constitutive proteasome (suc-LLVY-AMC hydrolysis); assay type: biochemical; settings: 0.2 nM c-20S, 25 μM suc-LLVY-AMC;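 also: IC50 obtained by fitting initial reaction velocities to a dose-dependent inhibition model, with SDS present as proteasome activator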
[2] = target: β5i of hu i-20S (Homo sapiens (Human), UniProt P20618+P28062); experiment: IC50 determination against β5i of human immunoproteasome (Ac-ANW-AMC hydrolysis); assay type: biochemical; settings: β5i, 0.4 nM i-20S, 15 μM Ac-ANW-AMC;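 also: enzyme activity taken as the initial reaction velocity per well, with SDS added to activate the proteasome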

SMILES: Cn1cc(CNC(=O)[C@@H]2Cc3cccc(c3)Oc3cccc(c3)C[C@H](NS(C)(=O)=O)C(=O)N[C@@H](CCc3ccccc3)C(=O)N2)cn1 [Compound 1-04, (5S,8S,11S)—N-((1-Methyl-1H-pyrazol-4-yl)methyl)-11-(methylsulfonamido)-7,10-dioxo-8-phenethyl-2-oxa-6,9-diaza-1,3(1,3)-dibenzenacyclododecaphane-5-carboxamide]
IC50 [1]: > 100 µM
IC50 [2]: 7.22 µM

SMILES: CC(=O)N[C@H]1Cc2cccc(c2)OCCCC[C@@H](C(=O)NCC(F)(F)F)NC(=O)[C@H](CCc2ccccc2)NC1=O [Compound 3-02, (3S,6S,9S)-3-Acetamido-4,7-dioxo-6-(2-phenylethyl)-N-(2,2,2-trifluoroethyl)-14-oxa-5,8-diazabicyclo[13.3.1]nonadeca-1(19),15,17-triene-9-carboxamide]
IC50 [1]: 0.433 µM
IC50 [2]: 5.88 µM

SMILES: O=C1CCc2cccc(c2)Oc2ccc(cc2)C[C@@H](C(=O)NCc2ccccc2F)NC(=O)[C@H](CC(=O)N2CCCC2)N1 [Compound 2-01-B, (5S,8S)—N-(2-Fluorobenzyl)-7,10-dioxo-8-(2-oxo-2-(pyrrolidin-1-yl)ethyl)-2-oxa-6,9-diaza-1(1,3),3(1,4)-dibenzenacyclododecaphane-5-carboxamide]
IC50 [1]: 75.4 µM
IC50 [2]: 0.845 µM

SMILES: O=C1CCCCCCCCC[C@@H](C(=O)NCc2cccc3ccccc23)NC(=O)[C@H](CC(=O)N2CCCC2)N1 [Compound 4-07]
IC50 [1]: > 100 µM
IC50 [2]: 61.3 µM

SMILES: O=C1CCCCCCCCOC[C@@H](C(=O)NCc2cccc3ccccc23)NC(=O)[C@H](CC(=O)N2CCCC2)N1 [Compound 4-15, (3S,6S)—N-(Naphthalen-1-ylmethyl)-5,8-dioxo-6-(2-oxo-2-(pyrrolidin-1-yl)ethyl)-1-oxa-4,7-diazacyclohexadecane-3-carboxamide]
IC50 [1]: 3.67 µM
IC50 [2]: 4.71 µM

SMILES: CN(C)[C@H]1Cc2cccc(c2)Oc2cccc(c2)C[C@@H](C(=O)NCC(F)(F)F)NC(=O)[C@H](CCc2ccccc2)NC1=O [Compound 1-57, (5S,8S,11S)-11-(Dimethylamino)-7,10-dioxo-8-phenethyl-N-(2,2,2-trifluoroethyl)-2-oxa-6,9-diaza-1,3(1,3)-dibenzenacyclododecaphane-5-carboxamide]
IC50 [1]: 1.1 µM
IC50 [2]: 18.7 µM

SMILES: CN1CCN(C(=O)[C@@H]2Cc3cccc(c3)Oc3cccc(c3)C[C@H](NC(=O)c3ccccn3)C(=O)N[C@@H](CCc3ccccc3)C(=O)N2)CC1 [Compound 1-52]
IC50 [1]: 30.7 µM
IC50 [2]: 33.9 µM

SMILES: O=C1CCc2cccc(c2)Oc2ccc(cc2)CC(C(=O)NCc2cccc3ccccc23)NC(=O)C(CC(=O)N2CCCC2)N1 (centres unmarked) [Compound 2-03-B, N-(Naphthalen-1-ylmethyl)-7,10-dioxo-8-(2-oxo-2-(pyrrolidin-1-yl)ethyl)-2-oxa-6,9-diaza-1(1,3),3(1,4)-dibenzenacyclododecaphane-5-carboxamide]
IC50 [1]: > 100 µM
IC50 [2]: 0.96 µM

SMILES: CC(C)(C)OC(=O)N[C@H]1Cc2cccc(c2)Oc2cccc(c2)C[C@@H](C(=O)OCc2ccccc2)NC(=O)[C@H](CCc2ccccc2)NC1=O [Compound 1-50, Benzyl-(S,8S,11S)-11-((tert-butoxycarbonyl)amino)-7,10-dioxo-8-phenethyl-2-oxa-6,9-diaza-1,3(1,3)-dibenzenacyclododecaphane-5-carboxylate]
IC50 [1]: > 100 µM
IC50 [2]: > 100 µM

SMILES: O=C1CCc2cccc(c2)Oc2ccc(cc2)C[C@@H](C(=O)NCc2cccc3ccccc23)NC(=O)[C@H](CC(=O)N2CCCC2)N1 (single isomer, unassigned) [Compound 2-03-A, N-(Naphthalen-1-ylmethyl)-7,10-dioxo-8-(2-oxo-2-(pyrrolidin-1-yl)ethyl)-2-oxa-6,9-diaza-1(1,3),3(1,4)-dibenzenacyclododecaphane-5-carboxamide]
IC50 [1]: 18.5 µM
IC50 [2]: 10.1 µM

SMILES: Cc1ccc(CNC(=O)[C@@H]2Cc3cccc(c3)Oc3cccc(c3)C[C@H](NC(=O)OC(C)(C)C)C(=O)N[C@@H](CCc3ccccc3)C(=O)N2)cc1 [Compound 1-68, tert-Butyl-((5S,8S,11S)-5-((4-methylbenzyl)carbamoyl)-7,10-dioxo-8-phenethyl-2-oxa-6,9-diaza-1,3(1,3)-dibenzenacyclododecaphane-11-yl)carbamate]
IC50 [1]: 17.9 µM
IC50 [2]: > 100 µM

SMILES: CC(C)(C)NC(=O)[C@@H]1Cc2cccc(c2)Oc2cccc(c2)C[C@H](NS(C)(=O)=O)C(=O)N[C@@H](CCc2ccccc2)C(=O)N1 [Compound 1-37]
IC50 [1]: 3.6 µM
IC50 [2]: > 100 µM

SMILES: CCN(CC)[C@H]1Cc2cccc(c2)Oc2cccc(c2)C[C@@H](C(=O)NCc2ccccc2)NC(=O)[C@H](CCc2ccccc2)NC1=O [Compound 1-16]
IC50 [1]: 22.9 µM
IC50 [2]: 100 µM

SMILES: COC1(CNC(=O)[C@@H]2Cc3cccc(c3)Oc3cccc(c3)CCC(=O)N[C@@H](CCN3CCOCC3)C(=O)N2)CC1 [Compound 1-90]
IC50 [1]: 68.1 µM
IC50 [2]: > 100 µM

SMILES: O=C1CCCCCCCCOC[C@@H](C(=O)NCc2ccccc2F)NC(=O)[C@H](CC(=O)N2CCC[C@@H]2c2ccccc2)N1 [Compound 4-16]
IC50 [1]: 4.12 µM
IC50 [2]: 51.3 µM

SMILES: O=C1CCc2cccc(c2)OCCCC[C@@H](C(=O)NCc2ccccc2F)NC(=O)[C@H](CC(=O)N2CCCC2C2CC2)N1 (single isomer, unassigned) [Compound 3-46-B]
IC50 [1]: 1.35 µM
IC50 [2]: 0.312 µM

Next, values leading:

IC50 [1]: 38.6 µM
IC50 [2]: > 100 µM
SMILES: O=C1CCc2cccc(c2)OCCCC[C@@H](C(=O)NC2CCCC2)NC(=O)[C@H](CCc2ccc(F)cc2)N1 [Compound 3-39, (7S,10S)—N-Cyclopentyl-10-(4-fluorophenethyl)-9,12-dioxo-2-oxa-8,11-diaza-1(1,3)-benzenacyclotetradecaphane-7-carboxamide]

IC50 [1]: 75.5 µM
IC50 [2]: > 100 µM
SMILES: O=C1CCc2cccc(c2)OCCCC[C@@H](C(=O)NC2CCCC2)NC(=O)[C@H](CCN2CCC(F)(F)CC2)N1 [Compound 3-43]

IC50 [1]: 21.5 µM
IC50 [2]: > 100 µM
SMILES: C[C@@H]1Cc2cccc(c2)OCCCC[C@@H](C(=O)NC2CCCC2)NC(=O)[C@H](CCN2CCOCC2)NC1=O (single isomer, unassigned) [Compound 3-38]

IC50 [1]: 56.7 µM
IC50 [2]: > 100 µM
SMILES: C[C@H]1Cc2cccc(c2)OCCCC[C@@H](C(=O)NC2CCCC2)NC(=O)[C@H](CCN2CCOCC2)NC1=O (single isomer, unassigned) [Compound 3-37]

IC50 [1]: 3.4 µM
IC50 [2]: 3.5 µM
SMILES: O=C1CCc2cccc(c2)OCCCC[C@@H](C(=O)NCc2ccccc2F)NC(=O)[C@H](CCN2CCOCC2)N1 [Compound 3-26]

IC50 [1]: 23.1 µM
IC50 [2]: > 10 µM
SMILES: COC(=O)C1COCCOc2cccc(c2)CCC(=O)NC(CCc2ccccc2)C(=O)N1 [Compound 3-05, Methyl-(7S,10S)-9,12-dioxo-10-phenethyl-2,5-dioxa-8,11-diaza-1(1,3)-benzenacyclotetradecaphane-7-carboxylate]

IC50 [1]: > 100 µM
IC50 [2]: 33.4 µM
SMILES: O=C1CCCCCCCCCC[C@@H](C(=O)NCc2cccc3ccccc23)NC(=O)[C@H](CC(=O)N2CCC[C@@H]2c2ccccc2)N1 [Compound 4-08]

IC50 [1]: 0.88 µM
IC50 [2]: 0.11 µM
SMILES: O=C1CCCCCCCCCC[C@@H](C(=O)NCc2ccccc2F)NC(=O)[C@H](CC(=O)N2CCCC2C2COC2)N1 (some centres unmarked) [Compound 4-17]

IC50 [1]: 56 µM
IC50 [2]: > 100 µM
SMILES: O=C1CCc2cccc(c2)OCCCC[C@@H](C(=O)NCc2ccccc2F)NC(=O)[C@H](CCc2ccc(F)cc2)N1 [Compound 3-41]
